Values of other authors in patent publication US20070197486A1, “Methods and systems for the delivery of corticosteroids” (Verus Pharmaceuticals, Inc., priority 2005, published 2007).
Read-outs that look alike come from different tables or passages of the source.

CCCC1O[C@@H]2C[C@H]3[C@@H]4CCC5=CC(=O)C=C[C@]5(C)[C@H]4[C@@H](O)C[C@]3(C)[C@]2(C(=O)CO)O1 (stereo partly drawn) [budesonide, (R,S)-11β,16α,17,21-tetrahydroxypregna-1,4-diene-3,20-dione cyclic 16,17-acetal with butyraldehyde]
solubility (in alcohols): readily soluble
solubility (in water): virtually insoluble
